Test results reported in the NIST ThermoML archive (doi:10.1021/je100529s).
± gives the expanded uncertainty stated by the source.

Test: activity coefficient (dimensionless); of the first substance listed, at infinite dilution; xn = mol fraction of the nth substance listed
Details: Liquid, Gas Stripping Method, x1 = 0

| Compound | activity coefficient (309.99 K) | activity coefficient (319.99 K) | activity coefficient (329.99 K) | activity coefficient (340.02 K) | activity coefficient (289.98 K) | activity coefficient (299.98 K) | activity coefficient (299.99 K) | activity coefficient (309.98 K) | activity coefficient (319.98 K) | activity coefficient (340.01 K) | activity coefficient (289.97 K) |
| --- | --- | --- | --- | --- | --- | --- | --- | --- | --- | --- | --- |
| CC(F)F [1,1-difluoroethane] + Cc1ccc(O)cc1 | 4.46 ± 0.27 | 4.26 ± 0.26 | 4.07 ± 0.24 | 3.88 ± 0.23 | – | – | – | – | – | – | – |
| CC(F)F [1,1-difluoroethane] + Cc1cccc(O)c1 | 4.37 ± 0.26 | 4.16 ± 0.25 | 3.98 ± 0.24 | – | 4.79 ± 0.29 | 4.59 ± 0.28 | – | – | – | – | – |
| CC(F)F [1,1-difluoroethane] + Cc1ccccc1O | 3.84 ± 0.23 | 3.67 ± 0.22 | 3.49 ± 0.21 | – | – | – | 4.02 ± 0.24 | – | – | – | – |
| C=CC=C [1,3-butadiene] + Cc1ccc(O)cc1 | 3.26 ± 0.2 | 3.16 ± 0.19 | 3.07 ± 0.18 | 2.99 ± 0.18 | – | – | – | – | – | – | – |
| C=CC=C [1,3-butadiene] + Cc1cccc(O)c1 | 3.22 ± 0.19 | 3.13 ± 0.19 | 3.05 ± 0.18 | – | 3.32 ± 0.2 | 3.26 ± 0.2 | – | – | – | – | – |
| C=CC=C [1,3-butadiene] + Cc1ccccc1O | 2.81 ± 0.17 | 2.72 ± 0.16 | 2.63 ± 0.16 | – | – | – | 2.87 ± 0.17 | – | – | – | – |
| C=CCC [1-butene] + Cc1ccc(O)cc1 | 4.66 ± 0.28 | 4.55 ± 0.27 | 4.4 ± 0.26 | 4.26 ± 0.26 | – | – | – | – | – | – | – |
| C=CCC [1-butene] + Cc1cccc(O)c1 | 4.62 ± 0.28 | 4.48 ± 0.27 | 4.36 ± 0.26 | – | 4.86 ± 0.29 | 4.75 ± 0.29 | – | – | – | – | – |
| C=CCC [1-butene] + Cc1ccccc1O | 4.15 ± 0.25 | 4.03 ± 0.24 | 3.87 ± 0.23 | – | – | – | 4.29 ± 0.26 | – | – | – | – |
| CC(C)C [2-methylpropane] + Cc1ccc(O)cc1 | 7.93 ± 0.48 | 7.62 ± 0.46 | 7.3 ± 0.44 | 7.03 ± 0.42 | – | – | – | – | – | – | – |
| CC(C)C [2-methylpropane] + Cc1cccc(O)c1 | 7.87 ± 0.47 | 7.54 ± 0.45 | 7.21 ± 0.43 | – | 8.35 ± 0.5 | 8.11 ± 0.49 | – | – | – | – | – |
| CC(C)C [2-methylpropane] + Cc1ccccc1O | 7.57 ± 0.45 | 7.14 ± 0.43 | 6.73 ± 0.4 | – | – | – | 7.92 ± 0.48 | – | – | – | – |
| C=C(C)C [2-methylpropene] + Cc1ccc(O)cc1 | 4.44 ± 0.27 | 4.34 ± 0.26 | 4.2 ± 0.25 | 4.07 ± 0.24 | – | – | – | – | – | – | – |
| C=C(C)C [2-methylpropene] + Cc1cccc(O)c1 | 4.42 ± 0.27 | 4.3 ± 0.26 | 4.16 ± 0.25 | – | 4.66 ± 0.28 | 4.56 ± 0.27 | – | – | – | – | – |
| C=C(C)C [2-methylpropene] + Cc1ccccc1O | 3.98 ± 0.24 | 3.84 ± 0.23 | 3.7 ± 0.22 | – | – | – | 4.11 ± 0.25 | – | – | – | – |
| C/C=C/C [(E)-2-butene] + Cc1ccc(O)cc1 | 4.48 ± 0.27 | 4.35 ± 0.26 | 4.25 ± 0.26 | 4.14 ± 0.25 | – | – | – | – | – | – | – |
| C/C=C/C [(E)-2-butene] + Cc1cccc(O)c1 | 4.49 ± 0.27 | 4.35 ± 0.26 | 4.23 ± 0.25 | – | 4.68 ± 0.28 | 4.57 ± 0.27 | – | – | – | – | – |
| C/C=C/C [(E)-2-butene] + Cc1ccccc1O | 4.13 ± 0.25 | 3.98 ± 0.24 | 3.82 ± 0.23 | – | – | – | 4.25 ± 0.26 | – | – | – | – |

| Compound | activity coefficient (309.99 K) | activity coefficient (319.99 K) | activity coefficient (329.99 K) | activity coefficient (340.02 K) | activity coefficient (289.98 K) | activity coefficient (299.98 K) | activity coefficient (299.99 K) | activity coefficient (309.98 K) | activity coefficient (319.98 K) | activity coefficient (340.01 K) | activity coefficient (289.97 K) |
| --- | --- | --- | --- | --- | --- | --- | --- | --- | --- | --- | --- |
| C/C=C\C [(Z)-2-butene] + Cc1ccc(O)cc1 | 4.12 ± 0.25 | 4.03 ± 0.24 | 3.91 ± 0.23 | 3.8 ± 0.23 | – | – | – | – | – | – | – |
| C/C=C\C [(Z)-2-butene] + Cc1cccc(O)c1 | 4.09 ± 0.25 | 3.99 ± 0.24 | 3.88 ± 0.23 | – | 4.29 ± 0.26 | 4.2 ± 0.25 | – | – | – | – | – |
| C/C=C\C [(Z)-2-butene] + Cc1ccccc1O | 3.69 ± 0.22 | 3.57 ± 0.21 | 3.44 ± 0.21 | – | – | – | 3.79 ± 0.23 | – | – | – | – |
| CCCC [butane] + Cc1ccc(O)cc1 | 6.88 ± 0.41 | 6.62 ± 0.4 | 6.32 ± 0.38 | 6.09 ± 0.37 | – | – | – | – | – | – | – |
| CCCC [butane] + Cc1cccc(O)c1 | 6.88 ± 0.41 | 6.6 ± 0.4 | 6.33 ± 0.38 | – | 7.22 ± 0.43 | 7.06 ± 0.42 | – | – | – | – | – |
| CCCC [butane] + Cc1ccccc1O | 6.61 ± 0.4 | 6.26 ± 0.38 | 5.92 ± 0.36 | – | – | – | 6.92 ± 0.42 | – | – | – | – |
| CCCl [chloroethane] + Cc1ccc(O)cc1 | – | – | 1.98 ± 0.12 | – | – | – | – | 2.09 ± 0.13 | 2.06 ± 0.12 | 1.93 ± 0.12 | – |
| CCCl [chloroethane] + Cc1cccc(O)c1 | – | 1.99 ± 0.12 | 1.93 ± 0.12 | – | – | 2.1 ± 0.13 | – | 2.05 ± 0.12 | – | – | 2.13 ± 0.13 |
| CCCl [chloroethane] + Cc1ccccc1O | – | – | 1.7 ± 0.1 | – | – | – | 1.83 ± 0.11 | 1.77 ± 0.11 | 1.76 ± 0.11 | – | – |
| COC [dimethyl ether] + Cc1ccc(O)cc1 | – | – | 0.21 ± 0.01 | – | – | – | – | 0.16 ± 0.01 | 0.19 ± 0.01 | 0.24 ± 0.02 | – |
| COC [dimethyl ether] + Cc1cccc(O)c1 | – | 0.18 ± 0.01 | 0.2 ± 0.01 | – | – | 0.13 ± 0.01 | – | 0.15 ± 0.01 | – | – | 0.11 ± 0.01 |
| COC [dimethyl ether] + Cc1ccccc1O | – | – | 0.18 ± 0.01 | – | – | – | 0.1 ± 0.01 | 0.12 ± 0.01 | 0.14 ± 0.01 | – | – |
| CCC [propane] + Cc1ccc(O)cc1 | 6.29 ± 0.38 | 6.12 ± 0.37 | 5.93 ± 0.36 | 5.74 ± 0.34 | – | – | – | – | – | – | – |
| CCC [propane] + Cc1cccc(O)c1 | 6.24 ± 0.37 | 6.06 ± 0.36 | 5.88 ± 0.35 | – | 6.31 ± 0.38 | 6.36 ± 0.38 | – | – | – | – | – |
| CCC [propane] + Cc1ccccc1O | 6.04 ± 0.36 | 5.83 ± 0.35 | 5.58 ± 0.33 | – | – | – | 6.34 ± 0.38 | – | – | – | – |
| C=CC [propene] + Cc1ccc(O)cc1 | 4.07 ± 0.24 | 4.02 ± 0.24 | 3.92 ± 0.24 | 3.84 ± 0.23 | – | – | – | – | – | – | – |
| C=CC [propene] + Cc1cccc(O)c1 | 4.05 ± 0.24 | 3.97 ± 0.24 | 3.88 ± 0.23 | – | 4.1 ± 0.25 | 4.13 ± 0.25 | – | – | – | – | – |
| C=CC [propene] + Cc1ccccc1O | 3.71 ± 0.22 | 3.6 ± 0.22 | 3.48 ± 0.21 | – | – | – | 3.81 ± 0.23 | – | – | – | – |
